Test results reported in patent publication US20250257336A1, “ISOLATED OR ENGINEERED POLYPEPTIDES, MICROORGANISMS AS WELL AS METHOD FOR SYNTHESIZING POLYPHENOLIC PHYTOCHEMICALS PHOSPHATE DERIVATIVE USING THE POLYPEPTIDES OR MICROORGANISMS” (National Taiwan University, priority 2021, published 2025).

How the values were obtained:
[1] = D7P vs daidzein, G7P vs genistein; produced with Bacillus subtilis BCRC 80517; cited from earlier work
[2] = enzymatic activity of the PPS of interest and its protein mutant strains, genistein as substrate (G7P formation, HPLC); assay type: biochemical; settings: Mg2+/ATP, 40° C., 10 minutes, pH 7.8, FIG. 30
Description: After vibration-based mixing and centrifugation (13,000 rpm, 4° C., 5 minutes), the resulting supernatant was collected, diluted, and then analyzed by HPLC. The activity unit was defined as the amount of enzyme required to yield 1 nmol of product per unit time.
Once an enzyme was prepared, its protein concentration was diluted to 0.1 mg/mL. The enzyme and the enzyme reaction liquid were mixed at a ratio of 1:1 (v/v) and were allowed to react at 40° C. for 10 minutes, at the end of which methanol was added to dilute the protein tenfold and thereby terminate the reaction. The changes in concentration of genistein (GEN) and G7P (a product of GEN phosphorylation) were analyzed. The catalytic activity of the PPS of interest in the present invention and its mutant strains were subsequently calculated and compared, as shown in FIG. 30. […] The activity test results of other protein mutant strains show no total loss of activity but a trend of decrease in activity. […] However, while the aforesaid important catalytic sites in the active domain for stabilizing the phosphate group were inferred with relatively great certainty, the amino acids in Arm1 either had relatively poor prediction results or had important catalytic sites composed of non-polar amino acids (which when substituted with Ala produce little change in property) such that the combined use of site-directed mutagenesis and enzymatic activity determination lacked accuracy.

Row | Molecule | water solubility relative to daidzein and genistein, respectively [1] | catalytic activity (relative specific activity) compared with the PPS of interest [2]
1 | O=c1c(-c2ccc(O)cc2)coc2cc(OP(=O)(O)O)cc(O)c12 [G7P, genistein 7-O-phosphate] | a hundred thousand times | –
2 | O=c1c(-c2ccc(O)cc2)coc2cc(OP(=O)(O)O)ccc12 [D7P, daidzein 7-O-phosphate] | a hundred thousand times | –
3 | K378A: site-directed mutant of the PPS of interest, Lys378 substituted with Ala (protein) MKKRGVSNMYSVLFRQAEESSQLAGAKGMNLIKLTKHGLPVPDGFIIQTNALARFMEDNQLQETSENVESGIISGTFSDELKDELTSSFYKLRESYRSVAVRSSSASEDLEGASFAGQYETYLNIKTEEEFLAKVKECWASFFSGRVSSYKKKMNNQIAEPLMGIVVQGLIDSEMSGVIFSRNPVTHDDRELLISASYGLGEAVVSGSVTPDTFIVNKSSFEIQKEIGAKEIYMESAAEGIAEKETSEDMRSRFCLTDEQVIELAEITKKTEDLYGYPVDIEFGIADHQIYLLQARPITTIDQDKKAAEEKRSFMITDTDMNDFWLNMESNIEGPVSPLFSSFIVPALEYGLKKSMQKFPIGVVVDEVKLYRGHIYSANQGGQQPPSEDCGKELFPILSEHMYDIINHTYLPFYRTLDQLAQTEHTAESALDAFQKLKAFYLTAYEEHFNIVFPQILLTNKLQAMYQDIQGESENAHFYEMLTGKMNKSLETDRCLWLFSMEVQENPNLLTIFENNKPEQLQEKLEQTDEGRHFLKNVHEFLQEYGWRSVKSHDLIEQIWVENPYFALANIQNYVRNGYHFDNEFQKTKEKREKLYNEFLENIEDPGLRTEFDRYYQWTLNSANIKDDHHFYIDAMLDAKARIFLLKIGELLAENGVIQDREDLWFLYDDEVEQALLHPVSLQEKAEKRRQIFHEYELAQAPAYLGTPTKEQLKAAEEIVGAVIEDEKNTENHIFGIAASSGIATGPVKIIRDANEFSQFAPGDVLVCKMTTPLWTSLFQDAKAIITDTGGILSHAAIIAREYGIPAVLGTRTATERLRDGDIITVDGSSGKITVVSRS | – | relatively significant decrease in activity
